Molecules are shown by their SMILES.

In general, inhibition refers to the percentage by which the read-out fell short of the control. A low value points to a weak effect.

The target of the experiment is γ-secretase (Homo sapiens, UniProt P49768). Put plainly: Screening for γ-secretase-modulating activity in SKNBE2 cells carrying APP 695 wild type (assay of Citron et al 1997). The class given is cell-based. The note with it: SKNBE2, @ 1 uM; SKNBE2 cells carrying the APP 695 wild type. The method, then: Screening was carried out using SKNBE2 cells carrying the APP 695—wild type, grown in DMEM/NUT-mix F12 (HAM) provided by Gibco (cat no. 31330-38) containing 5% Serum/Fe supplemented with 1% non-essential amino acids. Cells were grown to near confluency. The screening was performed using the assay as described in Citron et al (1997) Nature Medicine 3: 67.
In turn, `CC(C)C[C@@H](C(=O)O)c1cc(-c2ccc(C(F)(F)F)cc2)cc([C@@H]2CC[C@H](C(F)(F)F)NC2)c1` (relative stereo) [Example 35, 4-Methyl-2-[4′-trifluoromethyl-5-(6-trifluoromethyl-piperidin-3-yl)-biphenyl-3-yl]-pentanoic acid] registered an inhibition at 1 µM of 8%.
Compound `CC(C)C[C@H](C(=O)O)c1cc(-c2ccc(C(F)(F)F)cc2)cc([C@H]2CC[C@@H](C(F)(F)F)NC2)c1` (single isomer, unassigned) [Example 36, 4-Methyl-2-[4′-trifluoromethyl-5-(6-trifluoromethyl-piperidin-3-yl)-biphenyl-3-yl]-pentanoic acid] gave an inhibition at 1 µM of 40%.
Turning to `CC(C)CCC(c1ccc(C(F)(F)F)cc1)N1CCCC(c2cc(-c3ccc(C(F)(F)F)cc3)cc(C(CC(C)C)C(=O)O)c2)C1` (single isomer, unassigned) [Example 56, (R*) 4-Methyl-2-(5-{1-[4-methyl-1-(4-trifluoromethyl-phenyl)-pentyl]-piperidin-3-yl}-4′-trifluoromethyl-biphenyl-3-yl)-pentanoic acid], testing at 1 µM gave an inhibition of 75%.
The result for `CC(C)CC(C(=O)O)c1cc(-c2ccc(C(F)(F)F)cc2)cc(C2CCCN(C(C)c3ccc(C(F)(F)F)cc3)C2)c1` (single isomer, unassigned) [Example 63, (S*)-4-Methyl-2-(4′-trifluoromethyl-5-{1-[1-(4-trifluoromethyl-phenyl)-ethyl]-piperidin-3-yl}-biphenyl-3-yl)-pentanoic acid] reads 44%.
As to `CCC1CCCCN1c1cc(-c2ccc(C(F)(F)F)cc2)cc(C(CC(C)C)C(=O)O)c1` (centres unmarked) [Example 2, 2-[5-(2-Ethyl-piperidin-1-yl)-4′-trifluoromethyl-biphenyl-3-yl]-4-methyl-pentanoic acid], the inhibition at 1 µM was found to be 45%.
For the compound `CC(C)CC(C(=O)O)c1cc(-c2ccc(C(F)(F)F)cc2)cc(N2CCCCC2C)c1` (centres unmarked) [Example 3, 4-Methyl-2-[5-(2-methyl-piperidin-1-yl)-4′-trifluoromethyl-biphenyl-3-yl]-pentanoic acid], the inhibition at 1 µM was found to be 23%.
Under `CC(C)CC(C(=O)O)c1cc(-c2ccc(C(F)(F)F)cc2)cc(N2CCC(F)(F)CC2)c1` (centres unmarked) [Example 5, 2-(5-(4,4-difluoropiperidin-1-yl)-4′-(trifluoromethyl)biphenyl-3-yl)-4-methylpentanoic acid] stands 8%; under `CC(C)CC(C(=O)O)c1cc(-c2ccc(C(F)(F)F)cc2)cc(C2CCCC(C)N2)c1` (centres unmarked) [Example 6, 4-Methyl-2-[5-(6-methyl-piperidin-2-yl)-4′-trifluoromethyl-biphenyl-3-yl]-pentanoic acid], 0%.
Take `COc1ccc(CN2C(c3cc(-c4ccc(C(F)(F)F)cc4)cc(C(CC(C)C)C(=O)O)c3)CCCC2C(F)(F)F)cc1` (centres unmarked) [Example 7, 2-{5-[1-(4-Methoxy-benzyl)-6-trifluoromethyl-piperidin-2-yl]-4′-trifluoromethyl-biphenyl-3-yl}-4-methyl-pentanoic acid]: testing at 1 µM gave an inhibition of 70%.
The result for `CC(C)CCN1CCCCC1c1cc(-c2ccc(C(F)(F)F)cc2)cc(C(CC(C)C)C(=O)O)c1` (centres unmarked) [Example 10, 4-Methyl-2-{5-[1-(3-methyl-butyl)-piperidin-2-yl]-4′-trifluoromethyl-biphenyl-3-yl}-pentanoic acid] reads 34%; that for `CN1C(c2cc(CC(=O)O)cc(-c3ccc(C(F)(F)F)cc3)c2)CCCC1C(F)(F)F` (centres unmarked) [Example 11, [5-(1-Methyl-6-trifluoromethyl-piperidin-2-yl)-4′-trifluoromethyl-biphenyl-3-yl]-acetic acid], 23%.
`CC(C)CC(C(=O)O)c1cc(-c2ccc(C(F)(F)F)cc2)cc(C2CCC(C(F)(F)F)CN2C)c1` (centres unmarked) [Example 13, 4-Methyl-2-[5-(1-methyl-5-trifluoromethyl-piperidin-2-yl)-4′-trifluoromethyl-biphenyl-3-yl]-pentanoic acid]: testing at 1 µM gave an inhibition of 30%.
`CC(C)CCN1C(c2cc(-c3ccc(C(F)(F)F)cc3)cc(C(F)(CC(C)C)C(=O)O)c2)CCCC1C(F)(F)F` (centres unmarked) [Example 16, 2-Fluoro-4-methyl-2-{5-[1-(3-methyl-butyl)-6-trifluoromethyl-piperidin-2-yl]-4′-trifluoromethyl-biphenyl-3-yl}-pentanoic acid] gave an inhibition at 1 µM of 0%.
Under `CC(C)C[C@H](C(=O)O)c1cc(-c2ccc(C(F)(F)F)cc2)cc([C@H]2CCC[C@@H](C(F)(F)F)N2)c1` [Example 19, (S) 4-Methyl-2-[4′-trifluoromethyl-5-(6-trifluoromethyl-piperidin-2-yl)-biphenyl-3-yl]-pentanoic acid] stands 48%; under `CC(C)CCN1C(c2cc(-c3ccc(C(F)(F)F)cc3)cc(C(F)(F)C(=O)O)c2)CCCC1C(F)(F)F` (centres unmarked) [Example 22, Difluoro-{5-[1-(3-methyl-butyl)-6-trifluoromethyl-piperidin-2-yl]-4′-trifluoromethyl-biphenyl-3-yl}-acetic acid], 35%.
As to `CC(C)CC(C(=O)O)c1cc(-c2ccc(C(F)(F)F)cc2)cc(C2CCC(C(F)(F)F)CN2)c1` (centres unmarked) [Example 23, 4-Methyl-2-[4′-trifluoromethyl-5-(5-trifluoromethyl-piperidin-2-yl)-biphenyl-3-yl]-pentanoic acid], the inhibition at 1 µM is 30%.
For `CC(C)CC(C(=O)O)c1cc(-c2ccc(C(F)(F)F)cc2)cc(C2CCC(C(F)(F)F)N(Cc3ccncc3)C2)c1` (centres unmarked) [Example 25, 4-Methyl-2-[5-(1-pyridin-4-ylmethyl-6-trifluoromethyl-piperidin-3-yl)-4′-trifluoromethyl-biphenyl-3-yl]-pentanoic acid], the inhibition at 1 µM was 23%.
On to `CC(C)CC(C(=O)O)c1cc(-c2ccc(C(F)(F)F)cc2)cc(C2CCC(C(F)(F)F)N(Cc3cccc(C(F)(F)F)c3)C2)c1` (centres unmarked) [Example 28, 4-Methyl-2-{4′-trifluoromethyl-5-[6-trifluoromethyl-1-(3-trifluoromethyl-benzyl)-piperidin-3-yl]-biphenyl-3-yl}-pentanoic acid], for which at 1 µM the inhibition was 68%.
Compound `CCC(CC)N1CCCC(c2cc(-c3ccc(C(F)(F)F)cc3)cc(C(CC(C)C)C(=O)O)c2)C1` (centres unmarked) [Example 33, 2-{5-[1-(1-Ethyl-propyl)-piperidin-3-yl]-4′-trifluoromethyl-biphenyl-3-yl}-4-methyl-pentanoic acid] displayed an inhibition at 1 µM of 22%.
Turning to `CC(C)CC(C(=O)O)c1cc(-c2ccc(C(F)(F)F)cc2)cc(C2CCCN(S(=O)(=O)c3cccc(C(F)(F)F)c3)C2)c1` (centres unmarked) [Example 40, 4-Methyl-2-{4′-trifluoromethyl-5-[1-(3-trifluoromethyl-benzenesulfonyl)-piperidin-3-yl]-biphenyl-3-yl}-pentanoic acid], the inhibition at 1 µM was determined as 70%.
The result for `CC(C)CC(C(=O)O)c1cc(-c2ccc(C(F)(F)F)cc2)cc(C2CCCN(S(=O)(=O)c3cccc4cnccc34)C2)c1` (centres unmarked) [Example 41, 2-{5-[1-(Isoquinoline-5-sulfonyl)-piperidin-3-yl]-4′-trifluoromethyl-biphenyl-3-yl}-4-methyl-pentanoic acid] reads 70%.
The compound `CC(C)CC(C(=O)O)c1cc(-c2ccc(C(F)(F)F)cc2)cc(C2CCCN(S(=O)(=O)c3ccccc3C(F)(F)F)C2)c1` (centres unmarked) [Example 42, 4-Methyl-2-{4′-trifluoromethyl-5-[1-(2-trifluoromethyl-benzenesulfonyl)-piperidin-3-yl]-biphenyl-3-yl}-pentanoic acid] gave an inhibition at 1 µM of 63%.
As for `CC(C)CC(C(=O)O)c1cc(-c2ccc(C(F)(F)F)cc2)cc(C2CCCN(C(=O)c3ccc(C(F)(F)F)cc3)C2)c1` (centres unmarked) [Example 43, 4-Methyl-2-{4′-trifluoromethyl-5-[1-(4-trifluoromethyl-benzoyl)-piperidin-3-yl]-biphenyl-3-yl}-pentanoic acid], testing at 1 µM gave an inhibition of 55%.
The compound `CC(C)CC(C(=O)O)c1cc(-c2ccc(C(F)(F)F)cc2)cc(C2CCCN(Cc3ccc(-n4cccc4)cc3)C2)c1` (centres unmarked) [Example 44, 4-Methyl-2-{5-[1-(4-pyrrol-1-yl-benzyl)-piperidin-3-yl]-4′-trifluoromethyl-biphenyl-3-yl}-pentanoic acid] came in with an inhibition at 1 µM of 46%.
Under `CC(C)CC(C(=O)O)c1cc(-c2ccc(C(F)(F)F)cc2)cc(C2CCCN(Cc3ccc4ccccc4c3)C2)c1` (centres unmarked) [Example 46, 4-Methyl-2-[5-(1-naphthalen-2-ylmethyl-piperidin-3-yl)-4′-trifluoromethyl-biphenyl-3-yl]-pentanoic acid] stands 57%; under `CC(C)CC(C(=O)O)c1cc(-c2ccc(C(F)(F)F)cc2)cc(C2CCCN(Cc3ccc(OC(F)(F)F)cc3)C2)c1` (centres unmarked) [Example 47, 4-Methyl-2-{5-[1-(4-trifluoromethoxy-benzyl)-piperidin-3-yl]-4′-trifluoromethyl-biphenyl-3-yl}-pentanoic acid], 61%; under `CC(C)CC(C(=O)O)c1cc(-c2ccc(C(F)(F)F)cc2)cc(C2CCCN(Cc3ccc(Oc4ccc(F)cc4)cc3)C2)c1` (centres unmarked) [Example 48, 2-(5-{1-[4-(4-Fluoro-phenoxy)-benzyl]-piperidin-3-yl}-4′-trifluoromethyl-biphenyl-3-yl)-4-methyl-pentanoic acid], 59%.
Under `CC(C)CC(C(=O)O)c1cc(-c2ccc(C(F)(F)F)cc2)cc(C2CCCN(Cc3ccc4nnsc4c3)C2)c1` (centres unmarked) [Example 49, 2-[5-(1-Benzo[1,2,3]thiadiazol-6-ylmethyl-piperidin-3-yl)-4′-trifluoromethyl-biphenyl-3-yl]-4-methyl-pentanoic acid] stands 54%.
In turn, `CC(C)CC(C(=O)O)c1cc(-c2ccc(C(F)(F)F)cc2)cc(C2CCCN(Cc3ccc4nnn(C)c4c3)C2)c1` (centres unmarked) [Example 50, 4-Methyl-2-{5-[1-(3-methyl-3H-benzotriazol-5-ylmethyl)-piperidin-3-yl]-4′-trifluoromethyl-biphenyl-3-yl}-pentanoic acid] returned an inhibition at 1 µM of 17%.

The values above are taken from patent publication US8252935B2, “Piperidinyl and piperazinyl modulators of γ-secretase” (Janssen Pharmaceutica N.V., priority 2007, dated 2012).
